US20230071283A1, “COMPOSITIONS AND METHODS FOR SELECTIVE PROTEIN EXPRESSION” (Novartis AG, priority 2017, published 2023)
“Also recorded” adds a separate entry of the source.

What was measured:
[1] = target: T1, FKBPFD furin degron domain fused to an anti-CD19 scFv CAR (Homo sapiens, UniProt P62942, F37V); assay: CAR expression by FACS in Jurkat T cells transduced with FKBPFD furin degron-anti-CD19 scFv CAR; format: cell-based; conditions: 1 μM Shield1
T1 construct: signal peptide (CD8 leader) (N); furin cleavage site (C); anti-CD19 scFv CAR (CD8 hinge, 4-1BB, CD3zeta) (C); expressed in transfected cells; host or cells: Jurkat T cells, lentiviral transduction
T1 sequence (P62942 with tags, fused parts or gaps F37V): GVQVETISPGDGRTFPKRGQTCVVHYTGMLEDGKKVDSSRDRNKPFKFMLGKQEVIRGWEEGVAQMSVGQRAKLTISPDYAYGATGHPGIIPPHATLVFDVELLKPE
Description: The scFvs used in the CAR constructs that were assessed in Examples 3 were independently synthesized based on an anti-CD19 scFv sequence described above. […] The proteins used in the furin-degron constructs that were assessed in Examples 4-5 were independently synthesized based on publicly available sequence data.
Jurkat cell lines were transduced by spinoculation with lentiviral supernatant from 293T cells transfected with pELPS using the protein-furin domain regulated plasmid DNA.
Trimethoprim (TMP) was resuspended in DMSO. In all instances where concentrations not indicated, compounds were added for 24 hours in total prior to analysis by flow cytometry.
FKBPFD transduced cells treated with 1 μM Shield1. ERαFD transduced cells treated with 1 μM Bazedoxifene. DHFRFD transduced cells treated with 1 mM TMP. […] Black=UTD; Gray=construct, no compound; White=construct, compound.

CD19rev CAR T cells = assay: Titration of Shield-1 in CD19rev CAR T cells (remaining CAR+ cells, flow cytometry); format: cell-based; conditions: different doses of Shield-1 for 24 h
Description: FIG. 37 is a series of flow cytometry graphs depicting the titration of Shield-1 in CD19rev CAR. CD19rev CAR T cells (˜38% transduced) were incubated in different doses of Shield-1 for 24 h to assess dose-dependent caspase-9 acitvation. The remaining CAR+ cells were quantified by flow cytometry.

CD20 on-CAR = CD20 on-CAR surface expression (MFI, flow cytometry) versus Shield-1 concentration; format: cell-based
Text: FIG. 36 is series of graphs illustrating the modulation of CAR surface expression with FKBP ligand Shield-1. CD20 on-CAR T cells were stained for CAR expression and the mean fluorescence intensity (MFI, assessed by flow cytometry) of the CAR signal was plotted against the Shield-1 concentration. […] Absence of Shield-1 results in ˜60% reduction of CD20 on-CAR expression (bottom graph).

universal sCAR T cells = assay: Depletion of universal sCAR T cells by AP1903 in BT mice (qPCR, peripheral blood); format: in vivo; conditions: 4 weeks after AP1903 treatment (3 daily injections with 10 mg/kg)
Description: FIG. 44 is a schematic timeline of the experimental design of the in vivo experiment of the present invention. Using BT (bone marrow, liver, and thymus) mice for assessment of universal sCAR function in a non-oncology mouse model. Human fetal bone marrow and thymus were implanted into NSG mice on day −91. Validation of engraftment was done by flow cytometry on day −27. Universal T cells expressing CD19 sCAR T cells were injected on day 0, B cell depletion was assessed on day 10 and mice were treated with AP1903 (3 daily injections with 10 mg/kg). sCAR survival was assessed with qPCR.
A qPCR from peripheral blood WPRE copy number was performed with a gDNA, 4 weeks after AP1903 treatment.

CD19 sCAR T cells [2] = assay: In vivo depletion of CD19 sCAR T cells by AP1903 in Nalm6-injected mice
Description: FIG. 40 is a series of flow cytometry graphs depicting that the suicide activation results in pheripheral depletion of the suicide CAR T cells. Mice were injected with Nalm6 cells and after 5 days were treated with 19 s CAR T cells. CD19s CAR T cells were sorted before injection based on scFV expression. Flow plots show peripheral T cells (CD3+, CD45+) on day 8 and day 26. CD19 sCAR T cells were depleted on day 10 by injection of AP1903 (10 mg/kg).
The quantification of T cells was done from several mice. Mice were treated with AP1903 on day 10 to deplete sCAR T cells.

[3] = target: T2, ERαFD furin degron domain fused to an anti-CD19 scFv CAR (Homo sapiens, UniProt P03372, G521R/L384M/M421G/N519S/T371A/Y537S); assay: CAR expression by FACS in Jurkat T cells transduced with ERαFD furin degron-anti-CD19 scFv CAR; format: cell-based; conditions: 1 μM, 24 hours
T2 construct: signal peptide (CD8 leader) followed by Arg-Ser linker (N); furin cleavage site (C); anti-CD19 scFv CAR (CD8 hinge, 4-1BB, CD3zeta) (C); expressed in transfected cells; host or cells: Jurkat T cells, lentiviral transduction
T2 sequence (P03372 305-549 T371A/L384M/M421G/N519S/G521R/Y537S): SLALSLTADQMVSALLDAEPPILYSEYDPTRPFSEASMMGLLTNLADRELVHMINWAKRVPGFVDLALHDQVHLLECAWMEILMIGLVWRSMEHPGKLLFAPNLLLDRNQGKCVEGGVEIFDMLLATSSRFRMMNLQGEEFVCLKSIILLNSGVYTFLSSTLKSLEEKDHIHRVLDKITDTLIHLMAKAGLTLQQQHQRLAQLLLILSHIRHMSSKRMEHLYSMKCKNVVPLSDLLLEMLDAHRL

CD19 sCAR T cells [4] = assay: Elimination of CD19 sCAR T cells by AP20187 (live/dead-violet dye, flow cytometry); format: cell-based, human; conditions: 16 hours at 37° C.
Description: (§1) CAR T cells were incubated in the presence of the indicated concentrations of AP20187 for 16 hours at 37° C. Dead cells were detected with live/dead-violet dye and quantified by flow cytometry. Only T cells that expressed the inducible caspase were eliminated (FMC63 iC9 or CD19 sCAR, as well as iC9 control CAR).
(§2) Elimination of CD19 CAR T cells. CD19 sCAR T cells were incubated in the presence of the indicated concentrations AP20187 for 16 hours at 37° C. Dead cells were detected with live/dead-violet dye and quantified by flow cytometry.

nontransduced T cells = assay: AP20187 treatment of T cells not expressing inducible caspase-9; format: cell-based, human; conditions: 16 hours at 37° C.
Description: as §1, §2

[5] = tested on: NALM6, a CD19+ target cell line; assay: Cytokine secretion in co-culture with target cells; conditions: presence or absence of bazedoxifene; 20 hours; versus parental CAR19
CD19+ NALM6 cells = assay: Proliferation assay in co-culture with target cells (FACS, counting beads); conditions: presence or absence of bazedoxifene; 4 days; versus parental CAR19

`CC[C@H](C(=O)N1CCCC[C@H]1C(=O)O[C@H](CCc1ccc(OC)c(OC)c1)c1cccc(OCCN2CCOCC2)c1)c1cc(OC)c(OC)c(OC)c1` [Shield1, Shield-1] was tested, and the “Expression of the anti-CD19 scFv” value [1] was “inducible in the presence of compound; also recorded: inducible by the stabilizing compound”, the “Kinetics of CAR expression following compound addition” value [1] was “occurs rapidly following compound addition and is stable throughout the period of compound treatment” and the “caspase-9 activation and apoptosis (proportion of CAR+ cells)” value (CD19rev CAR T cells) was “lower doses of Shield-1 result in higher caspase-9 activation and increased apoptosis”. The “CAR expression (MFI) versus Shield-1 concentration” value (CD20 on-CAR; CD20 on-CAR T cells) was “dose-dependent increase in CAR expression” and the “reduction of CD20 on-CAR expression” value (CD20 on-CAR; absence of Shield-1) was ~60%.

For `CC[C@H](C(=O)N1CCCC[C@H]1C(=O)O[C@H](CCc1ccc(OC)c(OC)c1)c1cccc(OCC(=O)NCCNC(=O)COc2cccc([C@@H](CCc3ccc(OC)c(OC)c3)OC(=O)[C@@H]3CCCCN3C(=O)[C@@H](CC)c3cc(OC)c(OC)c(OC)c3)c2)c1)c1cc(OC)c(OC)c(OC)c1` [AP1903], the “sCAR T cells in peripheral blood (qPCR, WPRE copy number)” value (universal sCAR T cells) was “can be depleted with AP1903 treatment; also recorded: near-total sCAR absence in 2/3 mice”, the “T cells in spleen (human CD3 staining)” value (CD19 sCAR T cells [2]; >2 weeks after AP1903 treatment) was “T cells are not detectable” and the “Peripheral T cells (CD3+, CD45+)” value (CD19 sCAR T cells [2]; AP1903 10 mg/kg on day 10, versus vehicle, 10 mg/kg) was “T cells are hardly detectable after suicide activation; also recorded: the T cell percentages drop in the AP1903 group”. For the same molecule, the “sCAR T cells in spleen (quantitative PCR)” value (CD19 sCAR T cells [2]; AP1903 versus vehicle treated mice) was “near-total sCAR absence in most mice”.

With `Oc1ccc2c(c1)CC[C@H](c1ccccc1)[C@@H]2c1ccc(OCCN2CCCC2)cc1` [Lasofoxifene] the “CAR 19 expression” value [3] was “can induce CAR 19 expression”.

With `CC[C@H](C(=O)N1CCCC[C@H]1C(=O)O[C@H](CCc1ccc(OC)c(OC)c1)c1cccc(OCC(=O)NCC(CNC(=O)COc2cccc([C@@H](CCc3ccc(OC)c(OC)c3)OC(=O)[C@@H]3CCCCN3C(=O)[C@@H](CC)c3cc(OC)c(OC)c(OC)c3)c2)CN(C)C)c1)c1cc(OC)c(OC)c(OC)c1` [AP20187] the “Cell death after AP20187” value (CD19 sCAR T cells [4]) was “specifically killed; also recorded: specific and robust elimination of CD19 sCAR T cells” and the “Cell death after AP20187” value (nontransduced T cells) was “no cell death”.

B1: construct #106: ERα furin degron (ERmut1) fused to anti-CD19 scFV CAR; furin site GTGAEDPRPSRKRRSLGDVG (SEQ ID NO: 125) (protein)
chain: RSSLALSLTADQMVSALLDAEPPILYSEYDPTRPFSEASMMGLLTNLADRELVHMINWAKRVPGFVDLALHDQVHLLECAWMEILMIGLVWRSMEHPGKLLFAPNLLLDRNQGKCVEGGVEIFDMLLATSSRFRMMNLQGEEFVCLKSIILLNSGVYTFLSSTLKSLEEKDHIHRVLDKITDTLIHLMAKAGLTLQQQHQRLAQLLLILSHIRHMSSKRMEHLYSMKCKNVVPLSDLLLEMLDAHRLGTGAEDPRPSRKRRSLGDVGEIVMTQSPATLSLSPGERATLSCRASQDISKYLNWYQQKPGQAPRLLIYHTSRLHSGIPARFSGSGSGTDYTLTISSLQPEDFAVYFCQQGNTLPYTFGQGTKLEIKGGGGSGGGGSGGGGSQVQLQESGPGLVKPSETLSLTCTVSGVSLPDYGVSWIRQPPGKGLEWIGVIWGSETTYYSSSLKSRVTISKDNSKNQVSLKLSSVTAADTAVYYCAKHYYYGGSYAMDYWGQGTLVTVSSTTTPAPRPPTPAPTIASQPLSLRPEACRPAAGGAVHTRGLDFACDIYIWAPLAGTCGVLLLSLVITLYCKRGRKKLLYIFKQPFMRPVQTTQEEDGCSCRFPEEEEGGCELRVKFSRSADAPAYKQGQNQLYNELNLGRREEYDVLDKRRGRDPEMGGKPRRKNPQEGLYNELQKDKMAEAYSEIGMKGERRRGKGHDGLYQGLSTATKDTYDALHMQALPPR
In the case of B1, the “levels of IFNγ” value [5] is reported as “secrete IFNγ in the presence of CD19+ tumor cells, in a manner that is stabilizing compound dose-dependent and is noninferior to the parental CAR construct” and the Proliferation (CD19+ NALM6 cells) is reported as “proliferate in the presence of CD19+ tumor cells, in a manner that is stabilizing compound-dependent and is noninferior to the parental CAR19 construct”.
